Data reported in patent US10131653B2, “Heterocyclic compound” (TAKEDA PHARMACEUTICAL COMPANY LIMITED, priority 2015, dated 2018).
Where a name gives a salt, the structure may show the parent alone. Read-outs that look alike come from different tables or passages of the source.

Experiments:
human OX1 receptor = target: T1, human OX1 receptor (Homo sapiens, UniProt O43613); assay: Measurement of orexin receptor antagonistic activity (calcium fluorescence, FLIPRtetra); format: cell-based; conditions: CHO, read-out: Human Orexin1 receptor inhibition (at 10 μM)
T1 construct: expressed in transfected cells; host or cells: CHO cells
T1 sequence (O43613 1-425): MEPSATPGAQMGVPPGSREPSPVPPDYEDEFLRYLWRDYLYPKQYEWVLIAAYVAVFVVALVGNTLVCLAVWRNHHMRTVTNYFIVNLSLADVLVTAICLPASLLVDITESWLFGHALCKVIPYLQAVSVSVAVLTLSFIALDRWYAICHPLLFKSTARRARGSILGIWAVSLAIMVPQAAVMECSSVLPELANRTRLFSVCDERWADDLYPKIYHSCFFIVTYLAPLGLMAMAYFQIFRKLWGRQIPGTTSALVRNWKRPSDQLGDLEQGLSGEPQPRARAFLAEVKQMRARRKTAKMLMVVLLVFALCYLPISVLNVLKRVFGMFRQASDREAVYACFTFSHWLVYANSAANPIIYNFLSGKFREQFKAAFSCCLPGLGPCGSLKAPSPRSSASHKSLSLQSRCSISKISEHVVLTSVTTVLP
Method: (§1) Measurement of Orexin Receptor Antagonistic Activity
(§2) CHO cells forcibly expressing human OX1 receptor or human OX2 receptor were seeded in each well of 384 well black transparent bottom plate (BD Falcon) at 7,500 cells/well, and cultured for one day in a 5% CO2 incubator at 37° C. […] The plate was stood for 30 min in a 5% CO2 incubator at 37° C., and further stood at room temperature for 30 min. A test compound prepared by diluting with assay buffer B (HBSS, 20 mM HEPES, 0.1% BSA) was added at 10 μL/well, and then OX-A (OX1 receptor, final concentration; 1 nM) or OX-A (OX2 receptor, final concentration; 0.3 nM) was added at 10 μL/well, and the fluorescence value was measured by FLIPRtetra (Molecular Devices) every one sec for 2 min.

human OX2 receptor = target: T2, human OX2 receptor (Homo sapiens, UniProt O43614); assay: as above; format: cell-based; conditions: CHO, read-out: Human Orexin2 receptor inhibition (at 10 μM)
T2 construct: expressed in transfected cells; host or cells: CHO cells
T2 sequence (O43614 1-444): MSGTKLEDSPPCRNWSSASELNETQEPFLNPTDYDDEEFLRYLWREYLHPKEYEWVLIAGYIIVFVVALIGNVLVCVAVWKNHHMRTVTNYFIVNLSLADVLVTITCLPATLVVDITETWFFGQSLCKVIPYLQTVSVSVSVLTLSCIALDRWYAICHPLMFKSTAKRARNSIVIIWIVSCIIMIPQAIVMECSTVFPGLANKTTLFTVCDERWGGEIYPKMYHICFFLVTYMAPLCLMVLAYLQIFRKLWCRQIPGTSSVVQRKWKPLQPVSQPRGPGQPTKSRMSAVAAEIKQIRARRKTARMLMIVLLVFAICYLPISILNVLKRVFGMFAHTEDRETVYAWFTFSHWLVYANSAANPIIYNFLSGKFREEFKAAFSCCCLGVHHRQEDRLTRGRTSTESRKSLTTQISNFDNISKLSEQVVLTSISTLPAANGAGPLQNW
Method: as §1, §2

[1] = 10 μM test compound, CHO cells expressing human OX1 receptor, OX-A 1 nM
[2] = 10 μM test compound, CHO cells expressing human OX2 receptor, OX-A 0.3 nM

Row | inhibition at 10 µM (human OX1 receptor; [1]) [%] | inhibition at 10 µM (human OX2 receptor; [2]) [%] | SMILES | inhibition at 10 µM (human OX1 receptor) [%] | inhibition at 10 µM (human OX2 receptor) [%]
1 | 16 | 19 | Cc1cc(C)nc(N2CCN(C(=O)c3ccccc3C#N)CCO2)n1 [Example 45, 2-((2-(4,6-dimethylpyrimidin-2-yl)-1,2,5-oxadiazepan-5-yl)carbonyl)benzonitrile] | – | –
2 | 4 | 36 | Cc1cc(C)nc(N2CCN(C(=O)c3ccccc3)CCO2)n1 [Example 46, (2-(4,6-dimethylpyrimidin-2-yl)-1,2,5-oxadiazepan-5-yl) (phenyl)methanone] | – | –
3 | 23 | 97 | COc1cccc(OC)c1C(=O)N1CCON(c2nc(C)cc(C)n2)CC1 [Example 47, (2,6-dimethoxyphenyl) (2-(4,6-dimethylpyrimidin-2-yl)-1,2,5-oxadiazepan-5-yl)methanone] | – | –
4 | 10 | 73 | COc1cccc(F)c1C(=O)N1CCON(c2nc(C)cc(C)n2)CC1 [Example 48, (2-(4,6-dimethylpyrimidin-2-yl)-1,2,5-oxadiazepan-5-yl) (2-fluoro-6-methoxyphenyl) methanone] | – | –
5 | 9 | 14 | Cc1cc(C)nc(N2CCN(C(=O)c3cccc(C#N)c3)CCO2)n1 [Example 49, 3-((2-(4,6-dimethylpyrimidin-2-yl)-1,2,5-oxadiazepan-5-yl)carbonyl) benzonitrile] | – | –
6 | 3 | -3 | Cc1cc(C)nc(N2CCN(C(=O)c3ccc(C#N)cc3)CCO2)n1 [Example 50, 4-((2-(4,6-dimethylpyrimidin-2-yl)-1,2,5-oxadiazepan-5-yl)carbonyl) benzonitrile] | – | –
7 | 22 | 68 | COc1ccccc1C(=O)N1CCON(c2nc(C)cc(C)n2)CC1 [Example 51] | – | –
8 | 16 | 96 | COc1ccc(Cl)c(C(=O)N2CCON(c3nc(C)cc(C)n3)CC2)c1 [Example 52, (2-chloro-5-methoxyphenyl) (2-(4,6-dimethylpyrimidin-2-yl)-1,2,5-oxadiazepan-5-yl)methanone] | – | –
9 | 9 | 57 | Cc1cc(C)nc(N2CCN(C(=O)c3ccccc3Cl)CCO2)n1 [Example 53, (2-chlorophenyl) (2-(4,6-dimethylpyrimidin-2-yl)-1,2,5-oxadiazepan-5-yl)methanone] | – | –
10 | 16 | 84 | Cc1cc(C)nc(N2CCN(C(=O)c3cc(Cl)ccc3Cl)CCO2)n1 [Example 54, (2,5-dichlorophenyl) (2-(4,6-dimethylpyrimidin-2-yl)-1,2,5-oxadiazepan-5-yl)methanone] | – | –
11 | 18 | 96 | Cc1cc(C)nc(N2CCN(C(=O)c3cccc(Cl)c3Cl)CCO2)n1 [Example 55, (2,3-dichlorophenyl) (2-(4,6-dimethylpyrimidin-2-yl)-1,2,5-oxadiazepan-5-yl)methanone] | – | –
12 | 21 | 96 | Cc1cc(C)nc(N2CCN(C(=O)c3cc(Cl)cc(Cl)c3)CCO2)n1 [Example 56, (3,5-dichlorophenyl) (2-(4,6-dimethylpyrimidin-2-yl)-1,2,5-oxadiazepan-5-yl)methanone] | – | –

Further lines, the compound ahead of its results:

Row | SMILES | inhibition at 10 µM (human OX1 receptor; [1]) [%] | inhibition at 10 µM (human OX2 receptor; [2]) [%] | inhibition at 10 µM (human OX1 receptor) [%] | inhibition at 10 µM (human OX2 receptor) [%]
13 | Cc1cc(N2CCN(C(=O)c3ccccc3-c3nccs3)CCO2)nc(C)n1 [Example 29, (2-(2,6-dimethyl-pyrimidin-4-yl)-1,2,5-oxadiazepan-5-yl) (2-(1,3-thiazol-2-yl)phenyl) methanone] | 88 | 100 | – | –
14 | Cc1cc(N2CCN(C(=O)c3ccccc3-n3cccn3)CCO2)nc(C)n1 [Example 30, (2-(2,6-dimethyl-pyrimidin-4-yl)-1,2,5-oxadiazepan-5-yl) (2-(1H-pyrazol-1-yl)phenyl) methanone] | 1 | 101 | – | –
15 | Cc1cc(N2CCN(C(=O)c3ccccc3-n3ncnn3)CCO2)nc(C)n1 [Example 31, (2-(2,6-dimethyl-pyrimidin-4-yl)-1,2,5-oxadiazepan-5-yl) (2-(2H-tetrazol-2-yl)phenyl) methanone] | -2 | 100 | – | –
16 | Cc1cc(N2CCN(C(=O)c3ccccc3-c3cncs3)CCO2)nc(C)n1 [Example 32, (2-(2,6-dimethyl-pyrimidin-4-yl)-1,2,5-oxadiazepan-5-yl) (2-(1,3-thiazol-5-yl)phenyl) methanone] | 38 | 96 | – | –
17 | Cc1ccc(-n2nccn2)c(C(=O)N2CCON(c3cccc(C)n3)CC2)c1 [Example 33, (2-(6-methylpyridin-2-yl)-1,2,5-oxadiazepan-5-yl)(5-methyl-2-(2H-1,2,3-triazol-2-yl)phenyl)methanone] | 44 | 99 | – | –
18 | Cc1cc(C)nc(N2CCN(C(=O)c3cc(C)ccc3-n3nccn3)CCO2)c1 [Example 34, (2-(4,6-dimethylpyridin-2-yl)-1,2,5-oxadiazepan-5-yl)(5-methyl-2-(2H-1,2,3-triazol-2-yl)phenyl)methanone] | 97 | 99 | – | –
19 | Cc1ccc(-n2nccn2)c(C(=O)N2CCON(c3cc(C)nc(C)c3)CC2)c1 [Example 35, (2-(2,6-dimethylpyridin-4-yl)-1,2,5-oxadiazepan-5-yl)(5-methyl-2-(2H-1,2,3-triazol-2-yl)phenyl)methanone] | -4 | 5 | – | –
20 | COc1cccc(N2CCN(C(=O)c3ccccc3-c3nccs3)CCO2)n1 [Example 36, (2-(6-methoxypyridin-2-yl)-1,2,5-oxadiazepan-5-yl)(2-(1,3-thiazol-2-yl)phenyl)methanone] | 67 | 100 | – | –
21 | COc1cc(N2CCN(C(=O)c3ccccc3-c3nccs3)CCO2)ccn1 [Example 37, (2-(2-methoxypyridin-4-yl)-1,2,5-oxadiazepan-5-yl)(2-(1,3-thiazol-2-yl)phenyl)methanone] | 19 | 85 | – | –
22 | Cc1ccc(-n2nccn2)c(C(=O)N2CCON(c3ncc4ccccc4n3)CC2)c1 [Example 38, (5-methyl-2-(2H-1,2,3-triazol-2-yl)phenyl)(2-(quinazolin-2-yl)-1,2,5-oxadiazepan-5-yl)methanone] | 92 | 90 | – | –
23 | Cc1ccc(-n2nccn2)c(C(=O)N2CCON(c3nc4ccc(Cl)cc4o3)CC2)c1 [Example 39, (2-(6-chloro-1,3-benzoxazol-2-yl)-1,2,5-oxadiazepan-5-yl)(5-methyl-2-(2H-1,2,3-triazol-2-yl)phenyl)methanone] | 100 | 98 | – | –
24 | Cc1cc(N2CCN(C(=O)c3cc(C4CCC4)ccc3-n3nccn3)CCO2)nc(C)n1 [Example 41, (5-cyclobutyl-2-(2H-1,2,3-triazol-2-yl)phenyl)(2-(2,6-dimethylpyrimidin-4-yl)-1,2,5-oxadiazepan-5-yl)methanone] | 10 | 56 | – | –
25 | Cc1cc(N2CCN(C(=O)c3ccccc3-c3ncccn3)CCO2)nc(C)n1 [Example 42, (2-(2,6-dimethylpyrimidin-4-yl)-1,2,5-oxadiazepan-5-yl)(2-(pyrimidin-2-yl)phenyl)methanone] | 41 | 101 | – | –
26 | Cc1cc(N2CCN(C(=O)c3ccccc3-c3ccccn3)CCO2)nc(C)n1 [Example 43, (2-(2,6-dimethylpyrimidin-4-yl)-1,2,5-oxadiazepan-5-yl)(2-(pyridin-2-yl)phenyl)methanone hydrochloride] | 35 | 91 | – | –
27 | Cc1cc(N2CCN(C(=O)c3cc(C#N)ccc3-n3nccn3)CCO2)nc(C)n1 [Example 44, 3-((2-(2,6-dimethylpyrimidin-4-yl)-1,2,5-oxadiazepan-5-yl)carbonyl)-4-(2H-1,2,3-triazol-2-yl)benzonitrile] | -16 | 103 | – | –
28 | Cc1cc(C)nc(N2CCN(C(=O)c3ccccc3C)CCO2)n1 [Example 57, (2-(4,6-dimethylpyrimidin-2-yl)-1,2,5-oxadiazepan-5-yl) (2-methylphenyl)methanone] | – | – | 10 | 58
